Tests used:
[1] = test system: subjects with Type-2 Diabetes Mellitus (T2DM); assay: Oral glucose tolerance test (OGTT): serum C-peptide pharmacodynamic response; format: in vivo, human; conditions: baseline corrected, after 75-gram OGTT, Days 5, 10, 15
Experimental: (§1) On Days 5, 10 and 15, a 75-gram glucose solution (oral glucose tolerance test, OGTT) was administered 30 min post-drug administration. No breakfast was provided.
(§2) Pharmacodynamic (PD) responses, i.e., serum levels of glucose, insulin and C-peptide and plasma levels of glucagon, were evaluated on Days 5, 10 and 15: pre-dose (within 60 min prior to glucose intake) and at 0.5, 1, 1.5, 2, 2.5, 3 and 4 h post-glucose intake. Urine was collected for urinary glucose excretion on Days 5, 10 and 15: pre-dose (for bladder emptying only, no pre-dose glucose measurement), and over a series of intervals (0-2 h, 2-4 h, 4-6 h, 6-8 h, 8-12 h and 12-24 h post-dose).

[2] = test system: subjects with Type-2 Diabetes Mellitus (T2DM); assay: Oral glucose tolerance test (OGTT): serum glucose pharmacodynamic response; format: in vivo, human; conditions: baseline corrected, after 75-gram OGTT 30 min post-dose, Days 5, 10, 15
Experimental: as §1, §2

[3] = in vivo
Experimental: This phase I study accessed the pharmacokinetic interaction between dorzagliatin and empagliflozin in T2DM subjects.
Sixteen eligible subjects were enrolled and 15 of them completed the study.
All subjects received: (i) empagliflozin (25 mg, QD) on Days 1-5; and empagliflozin was taken 60 min prior to meals (except on Day 5, when it was administered 30 min before glucose intake); (ii) empagliflozin (25 mg, QD) and dorzagliatin (75 mg, BID) on Days 6-10 (only the morning dose on Day 10); and empagliflozin and dorzagliatin were taken 60 min prior to meals (except on Day 10, when they were administered 30 min before glucose intake); or (iii) dorzagliatin 75 mg BID on Days 11-15 (only the morning dose on Day 15); and dorzagliatin was taken 60 min prior to meals (except on Day 15, when it was administered 30 min before glucose intake).
Blood samples for the determination of dorzagliatin and empagliflozin concentrations and corresponding pharmacokinetic (PK) analysis were collected at the following time points on Days 5, 10 and 15: pre-dose (within 30 min prior to drug dosing) and at 0.25, 0.5, 1, 1.5, 2, 3, 4, 6, 8, 10, 12, 18 and 24 h post-dose. […]
The plasma concentration-time data for dorzagliatin and empagliflozin were analyzed using non-compartmental methods to calculate PK parameters.

| SMILES | C-peptide response AUEC0-4 h, mean [1] [ng·h/mL] | C-peptide response CEav, mean [1] [ng/mL] | C-peptide response CEmax, mean [1] [ng/mL] | Glucose response AUEC0-4 h, mean [2] [mg·h/dL] | Glucose response CEav, mean [2] [mg/dL] | Glucose response CEmax, mean [2] [mg/dL] | effect of empagliflozin on dorzagliatin PK parameters (drug-drug interaction) [3] | effect of dorzagliatin on empagliflozin PK parameters (drug-drug interaction) [3] |
| --- | --- | --- | --- | --- | --- | --- | --- | --- |
| OC[C@H]1O[C@@H](c2ccc(Cl)c(Cc3ccc(OC4CCOC4)cc3)c2)[C@H](O)[C@@H](O)[C@@H]1O (stereo in doubt) [Empagliflozin, (2S,3R,4R,5S,6R)-2-[4-chloro-3({4-[(3S)-oxolan-3-yloxy]phenyl}methyl)phenyl]-6-(hydroxymethyl)oxane-3,4,5-triol] | 11 | 2.7 | 4.7 | 452 | 113 | 199 | did not have a significant effect on dorzagliatin PK parameters | – |
| CC(C)C[C@@H](C(=O)Nc1ccn(C[C@@H](O)CO)n1)N1CC(Oc2ccccc2Cl)=CC1=O [Dorzagliatin, (S)-2-(4-(2-chlorophenoxy)-2-oxo-2,5-dihydro-1H-pyrrol-1-yl)-N-(1-((R)-2,3-dihydroxypropyl)-1H-pyrazol-3-yl)-4-methylpentanamide] | 13 | 3.2 | 5.5 | 364 | 91 | 163 | – | did not have a significant effect on empagliflozin PK parameters |
